The values that follow come from ChEMBL document CHEMBL1201862, “PubChem BioAssay data set” (2004).

The source made the active and inactive calls.

In assay [1] the target is T1, Dual specificity protein phosphatase 6 (Rattus norvegicus, UniProt Q64346).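 Further: confirmatory in vitro dose-response testing of MKP-3 inhibition; recombinant His-tagged MKP-3 made in E. coli BL21 with OMFP substrate.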
T1 sequence (Q64346 whole entry): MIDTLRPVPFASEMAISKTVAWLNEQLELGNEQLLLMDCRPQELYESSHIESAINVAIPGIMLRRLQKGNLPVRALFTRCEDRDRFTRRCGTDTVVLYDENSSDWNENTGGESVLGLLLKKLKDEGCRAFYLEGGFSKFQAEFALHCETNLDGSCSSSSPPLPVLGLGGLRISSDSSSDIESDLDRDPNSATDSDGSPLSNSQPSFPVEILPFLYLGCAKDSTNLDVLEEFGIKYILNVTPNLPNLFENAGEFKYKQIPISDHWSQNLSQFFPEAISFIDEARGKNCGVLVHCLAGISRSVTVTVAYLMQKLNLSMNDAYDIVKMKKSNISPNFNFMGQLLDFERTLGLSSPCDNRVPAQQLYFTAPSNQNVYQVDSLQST
The class given is functional.

In assay [2] the target is T2, Dual specificity protein phosphatase 3 (Homo sapiens, UniProt P51452). Kind of assay: SAR VHR1 Fluorescent Assay for In Vitro dose response studies. [Related pubchem assays (depositor defined):AID1654, AID1661, AID1878, AID1992, AID2004, AID2070, AID2085]. The class given is functional.
Assay [3] addresses T2, Dual specificity protein phosphatase 3. The experiment in a line: SAR VHR1 absorbance Assay for In Vitro dose response studies. [Related pubchem assays (depositor defined):AID1654, AID1661, AID1878, AID1992, AID2004].
Assay [4] addresses T3, Tyrosine-protein phosphatase non-receptor type 7 (Homo sapiens, UniProt P35236).
T3 sequence (P35236 whole entry): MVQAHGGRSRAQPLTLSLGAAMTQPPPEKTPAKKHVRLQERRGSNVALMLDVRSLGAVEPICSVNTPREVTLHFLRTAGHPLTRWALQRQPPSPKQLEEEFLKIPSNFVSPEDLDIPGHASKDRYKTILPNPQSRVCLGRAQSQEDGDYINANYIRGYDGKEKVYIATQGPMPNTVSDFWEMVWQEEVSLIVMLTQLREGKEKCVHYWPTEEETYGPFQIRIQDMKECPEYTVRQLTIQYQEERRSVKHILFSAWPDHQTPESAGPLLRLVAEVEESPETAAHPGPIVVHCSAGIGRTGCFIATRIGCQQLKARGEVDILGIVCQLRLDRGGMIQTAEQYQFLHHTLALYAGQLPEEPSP
Kind of assay: redox-active compounds inhibiting HePTP phosphatase – biochemical, fluorescence, mechanism study (AID 2068). The class given is functional.

For assay [5], the target named is T4, Short transient receptor potential channel 4 (Mus musculus, UniProt Q9QUQ5).
T4 sequence (Q9QUQ5 whole entry): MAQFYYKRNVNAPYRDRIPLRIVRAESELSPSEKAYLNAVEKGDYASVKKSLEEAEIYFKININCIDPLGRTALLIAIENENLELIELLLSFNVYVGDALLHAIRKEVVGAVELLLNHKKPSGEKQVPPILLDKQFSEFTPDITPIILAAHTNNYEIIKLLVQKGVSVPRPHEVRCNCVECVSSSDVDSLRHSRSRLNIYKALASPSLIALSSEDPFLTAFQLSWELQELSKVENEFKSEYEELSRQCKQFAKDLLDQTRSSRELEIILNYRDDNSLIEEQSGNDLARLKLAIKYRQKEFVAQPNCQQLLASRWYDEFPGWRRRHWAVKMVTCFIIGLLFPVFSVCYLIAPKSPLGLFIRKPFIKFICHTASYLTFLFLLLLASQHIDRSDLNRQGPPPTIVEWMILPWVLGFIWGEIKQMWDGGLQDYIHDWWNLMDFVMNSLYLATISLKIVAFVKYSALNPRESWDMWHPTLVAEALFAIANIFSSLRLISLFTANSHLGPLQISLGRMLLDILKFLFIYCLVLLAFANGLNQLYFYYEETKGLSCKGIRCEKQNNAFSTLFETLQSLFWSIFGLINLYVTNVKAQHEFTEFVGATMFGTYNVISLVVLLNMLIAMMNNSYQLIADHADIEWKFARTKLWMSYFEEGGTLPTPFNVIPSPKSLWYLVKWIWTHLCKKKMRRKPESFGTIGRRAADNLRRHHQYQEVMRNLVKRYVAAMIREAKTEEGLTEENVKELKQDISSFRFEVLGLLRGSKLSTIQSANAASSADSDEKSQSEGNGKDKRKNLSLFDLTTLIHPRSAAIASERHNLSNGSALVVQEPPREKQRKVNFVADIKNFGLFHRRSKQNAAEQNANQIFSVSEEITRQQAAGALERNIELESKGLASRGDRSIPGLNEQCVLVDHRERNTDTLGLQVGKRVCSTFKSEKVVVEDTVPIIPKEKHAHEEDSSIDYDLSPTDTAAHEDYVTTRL
Kind of assay: potentiation of DAMGO-evoked TRPC4 calcium signal – cell-based, HEK293 TRPC4/mu-opioid, Fluo-4 calcium, EC20 DAMGO, dose response (AID 434941).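 Further: HEK293 cells coexpressing TRPC4 and mu opioid receptor stimulated by EC20 DAMGO.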 The class given is functional.

In another assay the target is T5, Coagulation factor XII (Homo sapiens, UniProt P00748).
T5 sequence (P00748 whole entry): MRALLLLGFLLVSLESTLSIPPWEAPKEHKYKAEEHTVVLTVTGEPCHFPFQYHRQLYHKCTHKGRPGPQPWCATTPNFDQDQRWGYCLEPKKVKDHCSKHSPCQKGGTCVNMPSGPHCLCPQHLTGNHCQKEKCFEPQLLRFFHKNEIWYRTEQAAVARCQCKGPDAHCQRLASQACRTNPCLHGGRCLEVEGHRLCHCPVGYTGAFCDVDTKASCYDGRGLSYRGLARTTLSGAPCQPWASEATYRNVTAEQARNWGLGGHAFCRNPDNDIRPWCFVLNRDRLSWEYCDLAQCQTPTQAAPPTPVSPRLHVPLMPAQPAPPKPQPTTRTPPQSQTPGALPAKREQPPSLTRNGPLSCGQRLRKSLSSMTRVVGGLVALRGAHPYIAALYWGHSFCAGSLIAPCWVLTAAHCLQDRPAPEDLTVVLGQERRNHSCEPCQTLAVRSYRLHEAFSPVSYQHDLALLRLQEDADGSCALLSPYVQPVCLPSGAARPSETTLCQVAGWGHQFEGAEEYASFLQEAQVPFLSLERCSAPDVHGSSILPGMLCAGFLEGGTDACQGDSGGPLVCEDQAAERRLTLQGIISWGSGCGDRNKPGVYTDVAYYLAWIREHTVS
Kind of assay: activated coagulation factor XII inhibitor potency, concentration-effect curve, cell-free (AID 716). The class given is functional.

Assay [6] concerns the target T6, Ubiquitin-conjugating enzyme E2 N (Homo sapiens, UniProt P61088).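 Further: Dose-response confirmation in a TR-FRET assay detecting UBC13-driven polyubiquitin chain formation, inhibition measured.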
T6 sequence (P61088 whole entry): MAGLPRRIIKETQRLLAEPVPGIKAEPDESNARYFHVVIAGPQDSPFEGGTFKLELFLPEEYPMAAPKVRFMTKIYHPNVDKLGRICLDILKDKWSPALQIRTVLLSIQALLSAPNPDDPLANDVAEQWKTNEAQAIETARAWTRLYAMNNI
The class given is functional.

For assay [7], the system named is Vero. The experiment in a line: Vero 76 cell viability after compound exposure – Vero 76 cells, synthesized analogs, cytotoxicity control for West Nile virus antiviral project, SAR follow-up (AID 2414). To be noted: Chlorocebus sabaeus. The class given is functional.
For assay [8], the system named is Vero. Kind of assay: antiviral protection of cells from WNV – synthesized analogs, SAR follow-up (AID 2238). The class given is functional, cell-based. To be noted: Chlorocebus sabaeus.
Assay [9] relates to Vero. The experiment in a line: Vero cell viability after compound exposure – synthesized analogs, set II, cytotoxicity control for West Nile virus antiviral project, SAR follow-up (AID 2402). The class given is functional. To be noted: Chlorocebus sabaeus.
Assay [10] has as its system Vero. Kind of assay: host cell viability loss, Vero E6 – synthesized analogs, cytotoxicity control for West Nile virus antiviral project, SAR follow-up (AID 2244). The class given is functional. To be noted: Chlorocebus sabaeus.
A short description of assay [11]: A Cell Based Assay for the Identification of Probe candidate Compounds with Anti- Venezuelan Equine Encephalitis virus. [Related pubchem assays: 2409, 2419, 1621, 2238, 2405, 2024, 2065, 2402, 2414, 1635, 1650, 2244 ]. The class given is functional.
In a further assay the target is Trypsin (Sus scrofa, UniProt P00761). Kind of assay: trypsin protease activity blockade – biochemical, quenched peptide fluorescence, cherry-pick, selectivity assay for Rce1 protease inhibitor project, dose response (AID 488789).
Assay [12] concerns the target CAAX prenyl protease 2 (Homo sapiens, UniProt Q9Y256). Kind of assay: inhibition of Ras-converting CAAX protease Rce1 – biochemical, yeast membranes, quenched-peptide fluorescence, cherry-pick, dose response (AID 588849).
Assay [13] has as its target CAAX prenyl protease 2 (Saccharomyces cerevisiae S288c, UniProt Q03530). The class given is biochemical.
Assay [14] has as its target T7, Sphingosine 1-phosphate receptor 4 (Homo sapiens, UniProt O95977).
T7 sequence (O95977 whole entry): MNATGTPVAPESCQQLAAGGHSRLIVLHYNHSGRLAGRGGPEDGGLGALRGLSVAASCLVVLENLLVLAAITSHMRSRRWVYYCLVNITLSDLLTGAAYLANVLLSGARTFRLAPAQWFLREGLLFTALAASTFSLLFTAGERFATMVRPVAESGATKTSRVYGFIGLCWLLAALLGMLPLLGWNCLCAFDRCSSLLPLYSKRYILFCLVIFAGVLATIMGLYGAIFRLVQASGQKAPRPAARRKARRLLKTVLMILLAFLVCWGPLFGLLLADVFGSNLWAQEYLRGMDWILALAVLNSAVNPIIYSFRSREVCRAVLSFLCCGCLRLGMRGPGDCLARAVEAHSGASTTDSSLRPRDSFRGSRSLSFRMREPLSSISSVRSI
Kind of assay: potency of S1P4 activators – cell-based, fluorescence, synthesized compounds, late-stage follow-up (AID 463107). The class given is functional.

What is called IC50 is the midpoint of a concentration-inhibition curve. Broadly, the EC50 is the midpoint of the concentration-response curve. What is called CC50 is the concentration at which the toxic effect on the cells reaches its halfway point. In general, AC50 refers to the concentration at which the activity in the assay is half-maximal.

T2 sequence (P51452 whole entry): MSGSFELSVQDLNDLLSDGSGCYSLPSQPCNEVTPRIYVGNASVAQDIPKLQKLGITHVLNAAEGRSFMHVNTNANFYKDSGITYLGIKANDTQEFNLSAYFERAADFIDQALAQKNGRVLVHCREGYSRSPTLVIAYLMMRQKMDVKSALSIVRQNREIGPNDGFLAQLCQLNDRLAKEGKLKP
Sequence of CAAX prenyl protease 2 (Homo sapiens, UniProt Q9Y256) (Q9Y256 whole entry): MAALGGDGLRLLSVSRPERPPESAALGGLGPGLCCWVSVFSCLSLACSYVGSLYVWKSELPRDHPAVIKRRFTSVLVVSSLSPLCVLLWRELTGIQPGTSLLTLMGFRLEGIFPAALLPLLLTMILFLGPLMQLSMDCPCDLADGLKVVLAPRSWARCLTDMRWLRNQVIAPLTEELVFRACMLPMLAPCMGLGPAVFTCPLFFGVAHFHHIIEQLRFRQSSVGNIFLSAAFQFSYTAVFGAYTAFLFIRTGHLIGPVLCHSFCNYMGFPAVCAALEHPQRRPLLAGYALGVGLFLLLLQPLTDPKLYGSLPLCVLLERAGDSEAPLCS
Sequence of CAAX prenyl protease 2 (Saccharomyces cerevisiae S288c, UniProt Q03530) (Q03530 whole entry): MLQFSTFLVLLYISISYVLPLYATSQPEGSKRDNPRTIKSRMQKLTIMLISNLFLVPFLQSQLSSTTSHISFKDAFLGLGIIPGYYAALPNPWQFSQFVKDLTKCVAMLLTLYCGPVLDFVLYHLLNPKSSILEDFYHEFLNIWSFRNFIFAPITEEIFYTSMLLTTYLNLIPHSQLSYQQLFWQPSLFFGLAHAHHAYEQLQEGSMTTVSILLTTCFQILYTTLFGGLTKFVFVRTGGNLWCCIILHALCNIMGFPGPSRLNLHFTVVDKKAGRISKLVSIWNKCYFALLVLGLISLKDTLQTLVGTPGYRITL
Sequence of Trypsin (P00761 whole entry): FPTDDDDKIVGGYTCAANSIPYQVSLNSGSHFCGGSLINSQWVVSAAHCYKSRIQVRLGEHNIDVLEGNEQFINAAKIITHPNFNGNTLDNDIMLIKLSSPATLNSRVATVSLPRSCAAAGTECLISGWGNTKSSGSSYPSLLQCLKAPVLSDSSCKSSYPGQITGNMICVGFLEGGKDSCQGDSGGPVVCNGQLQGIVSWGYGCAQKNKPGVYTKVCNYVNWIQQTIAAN

`S=C(c1cn(CCOc2ccccc2)c2ccccc12)N1CCCCC1`: the IC50 was > 100 µM (inactive) in assay [1], > 100 µM (inactive) in assay [2], > 100 µM (inactive) in assay [3] and 31.7 µM (active) in assay [4].
For the compound `CC1Cc2ccccc2N1C(=O)CSc1nc2c(c(=O)n(C)c(=O)n2C)n1Cc1ccc(F)cc1` (stereo unspecified), the EC50 in assay [5] is 1.33 µM (active).
`CC(C)NC(=O)CCCc1cn(C)c2ccccc12`: the IC50 at Coagulation factor XII was > 50 µM (inactive).
For the compound `Cc1cccc2c1-c1sc(C(=O)NCCCN3CCC(C)CC3)cc1CO2`, the figures for the IC50 (in assay [6]; with Vero [8]; in [11]) were > 20 µM (inactive), > 40 µM (active) and 8.52 µM (active), respectively. Besides, the CC50 is 20 µM (active) with Vero [7], 10.1 µM (active) in the assay on Vero [9] and 10 µM (active) in the assay on Vero [10].
As for `CC1(C(=O)N(CC(=O)NC2CCCC2)Cc2ccccc2)CC(=O)N=C2C=CC=CN21` (stereo unspecified), the half-maximal activity concentration (AC50) at Trypsin was 4.57 µM (active); on CAAX prenyl protease 2 [12], 2.75 µM (active); at CAAX prenyl protease 2 [13] it was 4.24 µM (active).
As for `Cc1ccc(OCCOc2ccccc2)c([N+](=O)[O-])n1`, the EC50 in [14] is > 50 µM (inactive).
